In PMC4826234, “Emodin potentiates the antiproliferative effect of interferon α/β by activation of JAK/STAT pathway signaling through inhibition of the 26S proteasome” (Oncotarget, 2015) one finds IC50 data, which are given here for one compound.

Common to all, as to type: biochemical
The target in test [1] is T1, 26S proteasome β1 subunit (caspase-like activity) (Homo sapiens, UniProt P28072).
T1 construct: gene PSMB6; purified human 26S proteasome; with other subunits of the 26S proteasome
T1 sequence (P28072 35-239): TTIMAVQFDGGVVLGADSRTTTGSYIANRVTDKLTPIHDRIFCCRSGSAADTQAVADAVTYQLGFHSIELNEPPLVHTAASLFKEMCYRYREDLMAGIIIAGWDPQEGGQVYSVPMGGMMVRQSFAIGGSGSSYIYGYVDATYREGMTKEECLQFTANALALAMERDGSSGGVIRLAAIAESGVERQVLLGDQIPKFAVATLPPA
The experiment in a line: peptidase assay of purified human […] proteasome with Z-Nle-Pro-Nle-Asp-aminoluciferin.

For test [2], the target named is T2, 26S proteasome β5 subunit (chymotrypsin-like activity) (Homo sapiens, UniProt P28074).
T2 construct: gene PSMB5; purified human 26S proteasome; with other subunits of the 26S proteasome
T2 sequence (P28074 60-263): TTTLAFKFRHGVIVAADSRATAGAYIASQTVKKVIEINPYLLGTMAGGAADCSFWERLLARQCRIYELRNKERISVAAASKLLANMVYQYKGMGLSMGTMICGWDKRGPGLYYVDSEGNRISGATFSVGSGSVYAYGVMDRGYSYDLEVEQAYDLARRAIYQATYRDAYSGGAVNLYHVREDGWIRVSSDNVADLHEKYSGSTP
The experiment in a line: peptidase assay of purified human […] proteasome with Suc-Leu-Leu-Val-Tyr-AMC.

In test [3] the target is T3, 26S proteasome β2 subunit (trypsin-like activity) (Homo sapiens, UniProt Q99436).
T3 construct: gene PSMB7; purified human 26S proteasome; with other subunits of the 26S proteasome
T3 sequence (Q99436 44-277): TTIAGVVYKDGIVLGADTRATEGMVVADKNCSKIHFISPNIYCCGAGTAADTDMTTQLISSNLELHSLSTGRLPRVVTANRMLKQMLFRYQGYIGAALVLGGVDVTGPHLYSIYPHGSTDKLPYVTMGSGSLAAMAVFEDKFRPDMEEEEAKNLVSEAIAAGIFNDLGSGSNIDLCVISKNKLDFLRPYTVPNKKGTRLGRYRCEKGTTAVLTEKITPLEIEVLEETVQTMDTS
The test can be described thus: peptidase assay of purified human […] proteasome with Ac-Arg-Leu-Arg-AMC.

pIC50: −log10 of the molar value.

As for `Cc1cc(O)c2c(c1)C(=O)c1cc(O)cc(O)c1C2=O` [emodin, 1,3,8-trihydroxy-6-methylanthraquinone], the pIC50 in test [1] was 6.62; in test [2], 5.91; in test [3] it was 4.68.

One may read the pIC50 as −log10 of the IC50, conventionally taken in molar units. A lower pIC50 goes with a large IC50.
